In patent US8735414B2 (priority 2009, dated 2014) one finds melting point and IC50 data, which are given here for ten molecules.

The subject of data set [1] is bicistronic HCV replicon (replicon RNA, GenBank Accession No. AJ242654). Kind of data set: HCV Replicon Assay. The format is cell-based. The following applies: Hepatitis C virus, 72 h, read-out: Replicon IC50. Background: In antiviral work, replicon cells carry a viral genome segment that copies itself.

As to `Cc1cc2c(cc1F)c(C(=O)O)c(-c1ccc(S(=O)(=O)NC(C)(C)C(F)(F)F)cn1)n2C1CCCC1` [compound 765, 1-cyclopentyl-5-fluoro-6-methyl-2-{5-[(1,1,1-trifluoro-2-methylpropan-2-yl)sulfamoyl]pyridin-2-yl}-1H-indole-3-carboxylic acid], the melting point lay within 233 to 234 °C. Moreover, the IC50 in data set [1] was less than 0.5 µM.
For `C[C@@H](NS(=O)(=O)c1ccc(-c2c(C#N)c3ccc(Cl)cc3n2-c2ccccn2)nc1)C(F)(F)F` [compound 489, 6-[6-chloro-3-cyano-1-(pyridin-2-yl)-1H-indol-2-yl]-N-[(2R)-1,1,1-trifluoropropan-2-yl]pyridine-3-sulfonamide], in that order: 198 to 199 °C and 0.5 to 2 µM.
For `CCc1cc2c(cc1F)c(C#N)c(-c1ccc(S(=O)(=O)N[C@@H](C)C(F)(F)F)cn1)n2-c1ccc(F)cc1` [compound 1002, 6-[3-cyano-6-ethyl-5-fluoro-1-(4-fluorophenyl)-1H-indol-2-yl]-N-[(2S)-1,1,1-trifluoropropan-2-yl]pyridine-3-sulfonamide], in that order: 236 to 243 °C and less than 0.5 µM.
For `CC(C)(NS(=O)(=O)c1ccc(-c2c(C#N)c3cc(F)c(OC(F)F)cc3n2C2CCC2)nc1)C(F)(F)F` [compound 676, 6-[3-cyano-1-cyclobutyl-6-(difluoromethoxy)-5-fluoro-1H-indol-2-yl]-N-(1,1,1-trifluoro-2-methylpropan-2-yl)pyridine-3-sulfonamide], in that order: 162 to 165 °C and less than 0.5 µM.
`CC(C)(C)S(=O)(=O)Nc1ccc(-c2c(C#N)c3c(F)cc(C4CC4)cc3n2C2CCCCC2)nc1` [compound 1092, N-[6-(3-cyano-1-cyclohexyl-6-cyclopropyl-4-fluoro-1H-indol-2-yl)pyridin-3-yl]-2-methylpropane-2-sulfonamide] came in with a melting point of 252 to 255 °C. Also, the IC50 in data set [1] is less than 0.5 µM.
Regarding `C[C@H](NS(=O)(=O)c1ccc(-c2c(C#N)c3ccc(OC(F)F)cc3n2C2CCCC2)nc1)C1CC1` [compound 174, 6-[3-cyano-1-cyclopentyl-6-(difluoromethoxy)-1H-indol-2-yl]-N-[(1S)-1-cyclopropylethyl]pyridine-3-sulfonamide], the melting point is 176 to 182 °C. The IC50 in data set [1] was less than 0.5 µM.
For `CCc1cc2c(cc1F)c(C(N)=O)c(-c1ccc(NS(=O)(=O)C(C)(C)C)nc1)n2[C@H](C)C1CC1` [compound 1104, 2-{6-[(tert-butylsulfonyl)amino]pyridin-3-yl}-1-[(1R)-1-cyclopropylethyl]-6-ethyl-5-fluoro-1H-indole-3-carboxamide], in that order: 255.5 to 259 °C and less than 0.5 µM.
In the same order, the values of `C[C@H](NS(=O)(=O)c1ccc(-c2c(C(N)=O)c3cc(F)c(OC(F)F)cc3n2C2CCC2)nc1)C(F)(F)F` [compound 703, 1-cyclobutyl-6-(difluoromethoxy)-5-fluoro-2-(5-{[(2S)-1,1,1-trifluoropropan-2-yl]sulfamoyl}pyridin-2-yl)-1H-indole-3-carboxamide] are 184 to 186 °C and less than 0.5 µM.
In the same order, the values of `CC(C)NS(=O)(=O)c1cnc(-c2c(C#N)c3ccc(OC(F)(F)F)cc3n2C2CCC2)nc1` [compound 116, 2-[3-cyano-1-cyclobutyl-6-(trifluoromethoxy)-1H-indol-2-yl]-N-(propan-2-yl)pyrimidine-5-sulfonamide] are 200 to 203 °C and less than 0.5 µM.
Take `CC(C)(C)S(=O)(=O)Nc1ccc(-c2c(C#N)c3cc(F)c(OC(F)F)cc3n2C2CCCCC2)cn1` [compound 1065, N-{5-[3-cyano-1-cyclohexyl-6-(difluoromethoxy)-5-fluoro-1H-indol-2-yl]pyridin-2-yl}-2-methylpropane-2-sulfonamide]: the melting point was in the range of 278 to 280 °C. In addition, in data set [1], the IC50 was less than 0.5 µM.

Broadly, the melting point is the temperature of the solid-liquid transition. By IC50 is commonly meant the point on the concentration scale where inhibition reaches its midpoint.
